Each structure is given as a SMILES string.

Chain of glucosylceramide synthase (GCS) (Q16739 whole entry): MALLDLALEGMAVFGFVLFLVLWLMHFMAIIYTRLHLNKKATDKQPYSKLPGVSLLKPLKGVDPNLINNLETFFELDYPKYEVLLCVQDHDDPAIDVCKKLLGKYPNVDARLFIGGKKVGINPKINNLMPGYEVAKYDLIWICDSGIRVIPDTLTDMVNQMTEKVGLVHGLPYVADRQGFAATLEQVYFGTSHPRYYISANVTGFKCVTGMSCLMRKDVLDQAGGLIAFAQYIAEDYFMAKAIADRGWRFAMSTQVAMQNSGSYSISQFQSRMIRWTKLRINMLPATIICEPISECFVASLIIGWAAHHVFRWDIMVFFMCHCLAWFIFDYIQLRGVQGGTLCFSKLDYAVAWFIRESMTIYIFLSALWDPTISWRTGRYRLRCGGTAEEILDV

For this experiment, the target named is glucosylceramide synthase (GCS) (Homo sapiens (Human), UniProt Q16739). In words: UDP-Glo glucosylceramide synthase biochemical assay. The settings on record: endogenous GCS in Golgi preparations from human A375 malignant melanoma skin cells; C6 ceramide and UDP-glucose substrates; 20 h incubation; UDP detected by luminescence. The source says:
UDP-Glo™ Glucosylceramide Synthase Biochemical Assay
A UDP-Glo™ glucosylceramide synthase biochemical assay was utilized to evaluate the effect of test compounds on the activity of endogenous levels of GCS enzyme contained within Golgi preparations isolated from human A375 malignant melanoma skin cells. The UDP-Glo™ glucosylceramide synthase assay uses UDP-Glucose as a nucleotide-glycosyl donor and ceramide as substrate acceptor molecules. In the reaction, glucosylceramide synthase (GCS) transfers glucose from UDP-Glucose to ceramide. Glucosylceramide and UDP are released as products.
Using Promega's UDP-Glo™ Glycosyltransferase assay kit (Promega Corporation, Madison, WI, USA (Promega)), GCS activity was indirectly measured by detecting the amount of UDP produced. An aliquot of GCS enzyme (1.5 μg crude golgi preparation, total protein) and titrated test compound were aliquoted to each well and incubated for 30 minutes at room temperature. […] An equivalent volume of substrate mixture was then added to each well. Following a 20 h incubation at room temperature to allow for GCS turnover of substrate, an equal volume of UDP detection reagent (Promega) was added to each well and incubated for an additional 75 minutes at room temperature to simultaneously convert the accumulated UDP product into ATP and generate light in a luciferase reaction. The generated light was detected using a luminometer. […] luminescence values (RLUs) were normalized to mean “min” and “max” effects, as determined on each plate. “Min” was defined as the mean of the values of the wells treated with vehicle (DMSO) and which represent 0% inhibition; “max” was defined as the mean of the values of the wells treated with a reference inhibitor and which represent the 100% effect. Values for % Emax and EC50 were determined by best-fitting the normalized data to a curve in Activity Base along a four-parameter logistic nonlinear regression (4PL) model (based on the Levenberg-Marquardt algorithm and defined by the equation below): […]
where: n is 4PMin (bottom of the curve); m is 4PMax (top of the curve); i is IP (inflection point of curve); and p is slope. See Levenberg, K., “A Method for the Solution of Certain Problems in Least Squares”, Quart. Appl. Math. 2, (1944), pp 164-168 and Marquardt, D., “An Algorithm for Least Squares Estimation on Nonlinear Parameters”, SIAM J. Appl. Math. 11, (1963) pp 431-441.
For orientation: EC50 means the concentration needed to bring the measured effect to its halfway point. High values mean weaker potency, low ones greater potency. As for `O=C(NC12CCC(CO)(CC1)CC2)c1cn2cccc(-c3ccccc3OCC(F)(F)F)c2n1` [Compound 18, N-(4-(hydroxymethyl)bicyclo[2.2.2]octan-1-yl)-8-(2-(2,2,2-trifluoroethoxy)phenyl)imidazo[1,2-a]pyridine-2-carboxamide], the EC50 was found to be 2.3 nM. The same measure for `CC(C)(CO)NC(=O)c1cn2cc(Cl)cc(-c3ccccc3OCC(F)(F)F)c2n1` [Compound 20, 6-chloro-N-(1-hydroxy-2-methylpropan-2-yl)-8-(2-(2,2,2-trifluoroethoxy)phenyl)imidazo[1,2-a]pyridine-2-carboxamide]: 0.86 nM; for `O=C(NC1(CO)CCCC1)c1cn2cccc(-c3ccccc3OCC(F)(F)F)c2n1` [Compound 21, N-(1-(hydroxymethyl)cyclopentyl)-8-(2-(2,2,2-trifluoroethoxy)phenyl)imidazo[1,2-a]pyridine-2-carboxamide]: 11 nM; for `NC(CNC(=O)c1cn2cc(Cl)cc(-c3ccccc3OCC(F)(F)F)c2n1)C(F)(F)F` (stereo not drawn) [Compound 23, N-(2-amino-3,3,3-trifluoropropyl)-6-chloro-8-(2-(2,2,2-trifluoroethoxy)phenyl)imidazo[1,2-a]pyridine-2-carboxamide]: 10 nM.

Take `O=C(N[C@H]1CC[C@H](O)CC1)c1cn2cc(Cl)cc(-c3ccccc3OCC(F)(F)F)c2n1` [Compound 24, 6-chloro-N-(trans-4-hydroxycyclohexyl)-8-(2-(2,2,2-trifluoroethoxy)phenyl)imidazo[1,2-a]pyridine-2-carboxamide]: the EC50 was found to be 0.36 nM.

In turn, `O=C(NC12CCC(O)(CC1)C2)c1cn2cc(Cl)cc(-c3ccccc3OCC(F)(F)F)c2n1` [Compound 25, 6-chloro-N-(4-hydroxybicyclo[2.2.1]heptan-1-yl)-8-(2-(2,2,2-trifluoroethoxy)phenyl)imidazo[1,2-a]pyridine-2-carboxamide] displayed an EC50 of 2.5 nM. The same measure for `CC1(O)CCC(NC(=O)c2cn3cc(F)cc(-c4ccccc4OCC(F)(F)F)c3n2)CC1` (stereo not drawn) [Compound 26, cis or trans-6-fluoro-N-(4-hydroxy-4-methylcyclohexyl)-8-(2-(2,2,2-trifluoroethoxy)phenyl)imidazo[1,2-a]pyridine-2-carboxamide]: 0.79 nM. Then `O=C(N[C@H]1CC[C@@H](CO)CC1)c1cn2cc(F)cc(-c3ccccc3OCC(F)(F)F)c2n1` [Compound 27, 6-fluoro-N-(cis-4-(hydroxymethyl)cyclohexyl)-8-(2-(2,2,2-trifluoroethoxy)phenyl)imidazo[1,2-a]pyridine-2-carboxamide], with 1.3 nM. Then `O=C(NC1CCCC1)c1cn2cc(F)cc(-c3ccccc3OCC(F)(F)F)c2n1` [Compound 28, N-cyclopentyl-6-fluoro-8-(2-(2,2,2-trifluoroethoxy)phenyl)imidazo[1,2-a]pyridine-2-carboxamide], with 7.4 nM; and `O=C(N[C@H]1CC[C@H](CO)CC1)c1cn2cccc(-c3ccccc3OCC(F)(F)F)c2n1` [Compound 29, N-(trans-4-(hydroxymethyl)cyclohexyl)-8-(2-(2,2,2-trifluoroethoxy)phenyl)imidazo[1,2-a]pyridine-2-carboxamide], with 2.1 nM. Regarding `COc1ccc(Cl)cc1-c1cccn2cc(C(=O)NC34CCC(O)(CC3)C4)nc12` [Compound 30, 8-(5-chloro-2-methoxyphenyl)-N-(4-hydroxybicyclo[2.2.1]heptan-1-yl)imidazo[1,2-a]pyridine-2-carboxamide], the EC50 was 5.6 nM. Then `O=C(N[C@H]1CC[C@H](O)CC1)c1nc2c(-c3ccccc3OCC(F)(F)F)cccn2c1F` [Compound 32, 3-fluoro-N-(trans-4-hydroxycyclohexyl)-8-(2-(2,2,2-trifluoroethoxy)phenyl)imidazo[1,2-a]pyridine-2-carboxamide], with 47 nM; and `CC(C)(NC(=O)c1nc2c(-c3ccccc3OCC(F)(F)F)cccn2c1F)C(F)(F)F` [Compound 33, 3-fluoro-N-(1,1,1-trifluoro-2-methylpropan-2-yl)-8-(2-(2,2,2-trifluoroethoxy)phenyl)imidazo[1,2-a]pyridine-2-carboxamide], with 14 nM.

Take `N#C[C@@]1(NC(=O)c2cn3cccc(-c4ccccc4OCC(F)(F)F)c3n2)CCOC1` [Compound 34, (S)-N-(3-cyanotetrahydrofuran-3-yl)-8-(2-(2,2,2-trifluoroethoxy)phenyl)imidazo[1,2-a]pyridine-2-carboxamide]: the EC50 is 5.9 nM. Then `O=C(N[C@H]1CC[C@H](O)CC1)c1cn2cc(C(F)(F)F)cc(-c3ccccc3OCC(F)(F)F)c2n1` [Compound 36, N-(trans-4-hydroxycyclohexyl)-8-(2-(2,2,2-trifluoroethoxy)phenyl)-6-(trifluoromethyl)imidazo[1,2-a]pyridine-2-carboxamide], with 2.1 nM. Then `CC(C)(CO)NC(=O)c1cn2cc(C(F)(F)F)cc(-c3ccccc3OCC(F)(F)F)c2n1` [Compound 37, N-(1-hydroxy-2-methylpropan-2-yl)-8-(2-(2,2,2-trifluoroethoxy)phenyl)-6-(trifluoromethyl)imidazo[1,2-a]pyridine-2-carboxamide], with 4.5 nM. The same measure for `N#Cc1cc(-c2ccccc2OCC(F)(F)F)c2nc(C(=O)N[C@H]3CC[C@H](O)CC3)cn2c1` [Compound 39, 6-cyano-N-(trans-4-hydroxycyclohexyl)-8-(2-(2,2,2-trifluoroethoxy)phenyl)imidazo[1,2-a]pyridine-2-carboxamide]: 14 nM. `O=C(N[C@H]1C[C@@H](CO)C1)c1cn2cccc(-c3ccccc3OCC(F)(F)F)c2n1` [Compound 40] registered an EC50 of 6.7 nM.

As for `CC(C)(NC(=O)c1cn2cc(F)cc(-c3ccccc3OCC(F)(F)F)c2n1)C(F)(F)F` [Compound 41, 6-fluoro-N-(1,1,1-trifluoro-2-methylpropan-2-yl)-8-(2-(2,2,2-trifluoroethoxy)phenyl)imidazo[1,2-a]pyridine-2-carboxamide], the EC50 came out at 1.7 nM. The same measure for `O=C(N[C@H]1CCCOC1)c1cn2cc(C(F)(F)F)cc(-c3ccccc3OCC(F)(F)F)c2n1` [Compound 42, (S)-N-(tetrahydro-2H-pyran-3-yl)-8-(2-(2,2,2-trifluoroethoxy)phenyl)-6-(trifluoromethyl)imidazo[1,2-a]pyridine-2-carboxamide]: 2.5 nM; for `COc1cc(-c2ccccc2OCC(F)(F)F)c2nc(C(=O)NC(C)(C)C(F)(F)F)cn2c1` [Compound 43, 6-methoxy-N-(1,1,1-trifluoro-2-methylpropan-2-yl)-8-(2-(2,2,2-trifluoroethoxy)phenyl)imidazo[1,2-a]pyridine-2-carboxamide]: 2.1 nM. The same measure for `CC(C)(NC(=O)c1cn2cc(C#N)cc(-c3ccccc3OCC(F)(F)F)c2n1)C(F)(F)F` [Compound 44, 6-cyano-N-(1,1,1-trifluoro-2-methylpropan-2-yl)-8-(2-(2,2,2-trifluoroethoxy)phenyl)imidazo[1,2-a]pyridine-2-carboxamide]: 8.3 nM; for `O=C(N[C@@H]1COC[C@@H]1F)c1cn2cc(Cl)cc(-c3ccccc3OCC(F)(F)F)c2n1` [Compound 45, 6-chloro-N-((3R,4R)-4-fluorotetrahydrofuran-3-yl)-8-(2-(2,2,2-trifluoroethoxy)phenyl)imidazo[1,2-a]pyridine-2-carboxamide]: 4.3 nM; for `O=C(N[C@H]1COC[C@@H]1F)c1cn2cc(Cl)cc(-c3ccccc3OCC(F)(F)F)c2n1` [Compound 46, 6-chloro-N-((3S,4R)-4-fluorotetrahydrofuran-3-yl)-8-(2-(2,2,2-trifluoroethoxy)phenyl)imidazo[1,2-a]pyridine-2-carboxamide]: 4 nM.

Compound `O=C(NC12CC(CO)(C1)C2)c1cn2cccc(-c3ccccc3OCC(F)(F)F)c2n1` [Compound 47, N-(3-(hydroxymethyl)bicyclo[1.1.1]pentan-1-yl)-8-(2-(2,2,2-trifluoroethoxy)phenyl)imidazo[1,2-a]pyridine-2-carboxamide] had an EC50 of 9.2 nM. The same measure for `O=C(c1cn2cccc(-c3ccccc3OCC(F)(F)F)c2n1)N1CC2CC1(CF)C2` [Compound 48, (1-(fluoromethyl)-2-azabicyclo[2.1.1]hexan-2-yl)(8-(2-(2,2,2-trifluoroethoxy)phenyl)imidazo[1,2-a]pyridin-2-yl)methanone]: 4.5 nM; for `CN1CC2(C1)CN(C(=O)c1cn3cccc(-c4ccccc4OCC(F)(F)F)c3n1)CCO2` [Compound 49, (2-methyl-5-oxa-2,8-diazaspiro[3.5]nonan-8-yl)(8-(2-(2,2,2-trifluoroethoxy)phenyl)imidazo[1,2-a]pyridin-2-yl)methanone]: 18 nM.

The values are drawn from patent US20240018140A1, “MODIFIED IMIDAZOPYRIDINES AS GLUCOSYLCERAMIDE SYNTHASE INHIBITORS” (Merck Sharp & Dohme LLC, priority 2020, published 2024).
